According to article PMC11695783 (Frontiers in Pharmacology, 2024):
Values after ≈ are worked out from the molar mass of the structure shown. Where two headings read alike, the source gives them in different places.

Experiments:
[1] = system: Mycoplasma pneumoniae strain M129 (ATCC 29342); experiment: Susceptibility assay (broth microdilution MIC, MBC); assay type: cell-based; details: for MIC: M. pneumoniae strain M129, ≈96 h; for MBC: M. pneumoniae strain M129
Procedure: Mycoplasma pneumoniae strain M129 (ATCC 29342) was obtained from American Type Culture Collection (Manassas, VA, United States) and cultured at 37°C in the presence of 5% CO2 in the modified SP-4 liquid medium (pH 7.4) containing 2.1% (w/v) CM1166 mycoplasma broth base medium (Oxoid, Hants, United Kingdom), 20% (v/v) fetal bovine serum (FBS, Bioexplorer, CO, United States), 0.4% yeast extract (Oxoid), 0.55% (w/v) CMRL 1066 w/L-glutamine culture media powder (MyBioSource, San Diego, CA, United States), 1% D-glucose (Macklin) and 0.004% phenol red (Macklin). […] The solid medium is based on the above formula with the addition of 1% agar, and the characteristic fried egg-like colonies were used for experiments following incubation for 7 d on plates.
The broth microdilution MIC procedure was performed according to standardized methods for microdilution susceptibility testing of mycoplasma species ([Waites et al., 2012]). […] The concentration of organisms should be determined to approximately 10^6 CFU/mL prior to inoculation into 96-well plates. Due to the action of phenol red, the acidic metabolites of microbial growth can turn the medium yellow. […] The MBC assays were performed based on MICs following endpoint reading and the liquid in the high-concentration wells was removed for bacterial counting.

[2] = system: Mycoplasma pneumoniae strain M129 (ATCC 29342); experiment: Time-kill curves; assay type: cell-based; parameters: M. pneumoniae count in time-kill curve: unit not given here; details: for concentration at which bactericidal effect was achieved: static time-kill; for concentration at which bactericidal effect was achieved / reduction of bacterial counts: 72 h
Outline: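 Strain grown at 37 °C, 5% CO2 in modified SP-4 broth (pH 7.4, 20% FBS). Cultures incubated 72 h, sampled every 12 h, 10-fold serially diluted and plated on SP-4 agar; colonies counted after 7 d. Three repeats.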

For `C=C[C@]1(C)C[C@@H](OC(=O)CSCCN(CC)CC)[C@]2(C)[C@H](C)CC[C@]3(CCC(=O)[C@H]32)[C@@H](C)[C@@H]1O` [tiamulin, Tiamulin, reference compound], the MIC ([1]; read-out: MIC) was 7.81 ng/mL (≈ 0.0158 µM), the MBC ([1]; read-out: MBC) was 62.5 ng/mL (≈ 0.127 µM) and the “M. pneumoniae count in time-kill curve” value ([2]; 1×MIC, time 0) was 6.339. For the same compound, the “M. pneumoniae count in time-kill curve” value ([2]; 1×MIC, time 12) was 5.698, the “M. pneumoniae count in time-kill curve” value ([2]; 1×MIC, time 24) was 6.253 and the “M. pneumoniae count in time-kill curve” value ([2]; 1×MIC, time 36) was 5.423. For the same compound, the “M. pneumoniae count in time-kill curve” value ([2]; 1×MIC, time 48) was 4.896, the “M. pneumoniae count in time-kill curve” value ([2]; 1×MIC, time 60) was 5.29 and the “M. pneumoniae count in time-kill curve” value ([2]; 1×MIC, time 72) was 4.787. The “M. pneumoniae count in time-kill curve” value ([2]; 2×MIC, time 0) was 6.339, the “M. pneumoniae count in time-kill curve” value ([2]; 2×MIC, time 12) was 6.4123 and the “M. pneumoniae count in time-kill curve” value ([2]; 2×MIC, time 24) was 6.433. The “M. pneumoniae count in time-kill curve” value ([2]; 2×MIC, time 36) was 4.77, the “M. pneumoniae count in time-kill curve” value ([2]; 2×MIC, time 48) was 4.196 and the “M. pneumoniae count in time-kill curve” value ([2]; 2×MIC, time 60) was 3.827. For the same compound, the “M. pneumoniae count in time-kill curve” value ([2]; 2×MIC, time 72) was 3.91, the “M. pneumoniae count in time-kill curve” value ([2]; 4×MIC, time 0) was 6.339 and the “M. pneumoniae count in time-kill curve” value ([2]; 4×MIC, time 12) was 6.61. For the same compound, the “M. pneumoniae count in time-kill curve” value ([2]; 4×MIC, time 24) was 6.296, the “M. pneumoniae count in time-kill curve” value ([2]; 4×MIC, time 36) was 3.841 and the “M. pneumoniae count in time-kill curve” value ([2]; 4×MIC, time 48) was 3.684. For the same compound, the “M. pneumoniae count in time-kill curve” value ([2]; 4×MIC, time 60) was 3.889, the “M. pneumoniae count in time-kill curve” value ([2]; 4×MIC, time 72) was 3.638 and the “M. pneumoniae count in time-kill curve” value ([2]; 8×MIC, time 0) was 6.339. For the same compound, the “M. pneumoniae count in time-kill curve” value ([2]; 8×MIC, time 12) was 6.119, the “M. pneumoniae count in time-kill curve” value ([2]; 8×MIC, time 24) was 6.148 and the “M. pneumoniae count in time-kill curve” value ([2]; 8×MIC, time 36) was 3.952. The “M. pneumoniae count in time-kill curve” value ([2]; 8×MIC, time 48) was 3.772, the “M. pneumoniae count in time-kill curve” value ([2]; 8×MIC, time 60) was 3.839 and the “M. pneumoniae count in time-kill curve” value ([2]; 8×MIC, time 72) was 3.776. For the same compound, the “M. pneumoniae count in time-kill curve” value ([2]; 16×MIC, time 0) was 6.339, the “M. pneumoniae count in time-kill curve” value ([2]; 16×MIC, time 12) was 6.238 and the “M. pneumoniae count in time-kill curve” value ([2]; 16×MIC, time 24) was 5.56. For the same compound, the “M. pneumoniae count in time-kill curve” value ([2]; 16×MIC, time 36) was 4, the “M. pneumoniae count in time-kill curve” value ([2]; 16×MIC, time 48) was 3.739 and the “M. pneumoniae count in time-kill curve” value ([2]; 16×MIC, time 60) was 3.621. For the same compound, the “M. pneumoniae count in time-kill curve” value ([2]; 16×MIC, time 72) was 3.801, the “M. pneumoniae count in time-kill curve” value ([2]; 32×MIC, time 0) was 6.339 and the “M. pneumoniae count in time-kill curve” value ([2]; 32×MIC, time 12) was 6.569. For the same compound, the “M. pneumoniae count in time-kill curve” value ([2]; 32×MIC, time 24) was 5.262, the “M. pneumoniae count in time-kill curve” value ([2]; 32×MIC, time 36) was 3.833 and the “M. pneumoniae count in time-kill curve” value ([2]; 32×MIC, time 48) was 3.266. For the same compound, the “M. pneumoniae count in time-kill curve” value ([2]; 32×MIC, time 60) was 3.249, the “M. pneumoniae count in time-kill curve” value ([2]; 32×MIC, time 72) was 3.425 and the “M. pneumoniae count in time-kill curve” value ([2]; 64×MIC, time 0) was 6.339. For the same compound, the “M. pneumoniae count in time-kill curve” value ([2]; 64×MIC, time 12) was 6.625, the “M. pneumoniae count in time-kill curve” value ([2]; 64×MIC, time 24) was 4.23 and the “M. pneumoniae count in time-kill curve” value ([2]; 64×MIC, time 36) was 3.61. For the same compound, the “M. pneumoniae count in time-kill curve” value ([2]; 64×MIC, time 48) was 3.065, the “M. pneumoniae count in time-kill curve” value ([2]; 64×MIC, time 60) was 3.16 and the “M. pneumoniae count in time-kill curve” value ([2]; 64×MIC, time 72) was 3.29. The “concentration at which bactericidal effect was achieved” value [2] was 64 × MIC.
For `C=CC1(C)CC(OC(=O)CSc2ccc(NC(=O)Cc3ccc([N+](=O)[O-])cc3)cc2)C2(C)C(C)CCC3(CCC(=O)C32)C(C)C1O` (centres unmarked) [compound 16C, 22–((4-((4-nitrophenyl)acetamido)phenyl)thio)deoxypleuromutilin], the MBC [1] was 7.812 ng/mL (≈ 0.012 µM), the MIC [1] was 1.953 ng/mL (≈ 0.00301 µM) and the “M. pneumoniae count in time-kill curve” value ([2]; 1×MIC, time 0) was 7.809. The “M. pneumoniae count in time-kill curve” value ([2]; 1×MIC, time 12) was 7.011, the “M. pneumoniae count in time-kill curve” value ([2]; 1×MIC, time 24) was 6.5256 and the “M. pneumoniae count in time-kill curve” value ([2]; 1×MIC, time 36) was 6.341. For the same compound, the “M. pneumoniae count in time-kill curve” value ([2]; 1×MIC, time 48) was 6.63, the “M. pneumoniae count in time-kill curve” value ([2]; 1×MIC, time 60) was 6.334 and the “M. pneumoniae count in time-kill curve” value ([2]; 1×MIC, time 72) was 5.5397. For the same compound, the “reduction of bacterial counts” value ([2]; 1–4 × MIC) was 2.27–2.60 log10 CFU/mL, the “M. pneumoniae count in time-kill curve” value ([2]; 2×MIC, time 0) was 7.809 and the “M. pneumoniae count in time-kill curve” value ([2]; 2×MIC, time 12) was 6.901. The “M. pneumoniae count in time-kill curve” value ([2]; 2×MIC, time 24) was 6.35, the “M. pneumoniae count in time-kill curve” value ([2]; 2×MIC, time 36) was 6.074 and the “M. pneumoniae count in time-kill curve” value ([2]; 2×MIC, time 48) was 6.197. For the same compound, the “M. pneumoniae count in time-kill curve” value ([2]; 2×MIC, time 60) was 5.9, the “M. pneumoniae count in time-kill curve” value ([2]; 2×MIC, time 72) was 5.211 and the “M. pneumoniae count in time-kill curve” value ([2]; 4×MIC, time 0) was 7.247. The “M. pneumoniae count in time-kill curve” value ([2]; 4×MIC, time 12) was 6.539, the “M. pneumoniae count in time-kill curve” value ([2]; 4×MIC, time 24) was 6.026 and the “M. pneumoniae count in time-kill curve” value ([2]; 4×MIC, time 36) was 5.763. For the same compound, the “M. pneumoniae count in time-kill curve” value ([2]; 4×MIC, time 48) was 5.628, the “M. pneumoniae count in time-kill curve” value ([2]; 4×MIC, time 60) was 5.61 and the “M. pneumoniae count in time-kill curve” value ([2]; 4×MIC, time 72) was 4.889. For the same compound, the “M. pneumoniae count in time-kill curve” value ([2]; 8×MIC, time 0) was 7.429, the “M. pneumoniae count in time-kill curve” value ([2]; 8×MIC, time 12) was 7.7 and the “M. pneumoniae count in time-kill curve” value ([2]; 8×MIC, time 24) was 5.719. The “M. pneumoniae count in time-kill curve” value ([2]; 8×MIC, time 36) was 4.474, the “M. pneumoniae count in time-kill curve” value ([2]; 8×MIC, time 48) was 3.799 and the “M. pneumoniae count in time-kill curve” value ([2]; 8×MIC, time 60) was 3. The “M. pneumoniae count in time-kill curve” value ([2]; 8×MIC, time 72) was 3.001, the “M. pneumoniae count in time-kill curve” value ([2]; 16×MIC, time 0) was 7.247 and the “M. pneumoniae count in time-kill curve” value ([2]; 16×MIC, time 12) was 7.508. The “M. pneumoniae count in time-kill curve” value ([2]; 16×MIC, time 24) was 4.094, the “M. pneumoniae count in time-kill curve” value ([2]; 16×MIC, time 36) was 3.774 and the “M. pneumoniae count in time-kill curve” value ([2]; 16×MIC, time 48) was 3.36. For the same compound, the “M. pneumoniae count in time-kill curve” value ([2]; 16×MIC, time 60) was 2.9656, the “M. pneumoniae count in time-kill curve” value ([2]; 16×MIC, time 72) was 2.848 and the “M. pneumoniae count in time-kill curve” value ([2]; 32×MIC, time 0) was 7.065. The “M. pneumoniae count in time-kill curve” value ([2]; 32×MIC, time 12) was 6.342, the “M. pneumoniae count in time-kill curve” value ([2]; 32×MIC, time 24) was 6.583 and the “M. pneumoniae count in time-kill curve” value ([2]; 32×MIC, time 36) was 4.407. The “M. pneumoniae count in time-kill curve” value ([2]; 32×MIC, time 48) was 3.894, the “M. pneumoniae count in time-kill curve” value ([2]; 32×MIC, time 60) was 3.568 and the “M. pneumoniae count in time-kill curve” value ([2]; 32×MIC, time 72) was 2.774. For the same compound, the “number of organisms (decreased to the LOD)” value ([2]; 64 × MIC, 72 h exposure) was 2 log10 CFU/mL, the “M. pneumoniae count in time-kill curve” value ([2]; 64×MIC, time 0) was 7.065 and the “M. pneumoniae count in time-kill curve” value ([2]; 64×MIC, time 12) was 5.938. For the same compound, the “M. pneumoniae count in time-kill curve” value ([2]; 64×MIC, time 24) was 5.724, the “M. pneumoniae count in time-kill curve” value ([2]; 64×MIC, time 36) was 3.5819 and the “M. pneumoniae count in time-kill curve” value ([2]; 64×MIC, time 48) was 3.199. For the same compound, the “M. pneumoniae count in time-kill curve” value ([2]; 64×MIC, time 60) was 2.961, the “M. pneumoniae count in time-kill curve” value ([2]; 64×MIC, time 72) was 2 and the “concentration at which bactericidal effect was achieved” value [2] was no less than 8 × MIC. For the same compound, the “reduction of bacterial counts” value ([2]; ≥ 8×MIC) was greater than 3 log10 CFU/mL.
